Values of other authors as cited in article PMC3582496 (PLoS Biology, 2013).

Key:
CN [1] = test system: CN
CN [2] = test system: CN; remark: listed apart in the source

| Molecule | effect on rate of pNpp hydrolysis (CN [1]) | Km (CN [2]) | Vmax (CN [2]) |
| --- | --- | --- | --- |
| C=CC[C@@H]1/C=C(\C)C[C@H](C)C[C@H](OC)[C@H]2O[C@@](O)(C(=O)C(=O)N3CCCC[C@H]3C(=O)O[C@H](/C(C)=C/[C@@H]3CC[C@@H](O)[C@H](OC)C3)[C@H](C)[C@@H](O)CC1=O)[C@H](C)C[C@@H]2OC [FK506] | rate increases | – | – |
| DLDVPIPGRFDRRVpSVCAE [RII phosphopeptide] | – | 26 µM | 1.7 µmol/min/mg |
| cyclosporin A [CSA] | rate increases | – | – |
